Like-named read-outs stand apart in the source and are kept apart here. Some results are limits rather than exact numbers.

The test concerns beta-TC6 cells. The test is described as follows: Insulin HTRF assay (relative activity Ar) in beta-TC6 cells. The class given is cell-based, mouse. The conditions noted are these: for Emax: Mus musculus, Beta-TC6, 4 h, read-out: Ar (relative activity). Summed up:
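beta-TC6 cells (15k/well, seeded 24 or 48 h) washed, then exposed to compound in induction buffer (0.5% DMSO final) for 2, 3 or 4 h at 37°C.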

Where [1] appears, read: insulin HTRF, supernatant of beta-TC6 cells, incubation with test compound at 37°C for 2, 3, 4h.

Consider `COc1cccc(-c2nc3c(Nc4cc(OC)c(OC)c(OC)c4)nccc3[nH]2)c1` [Compound 367, 2-(3-methoxyphenyl)-N-(3,4,5-trimethoxyphenyl)-1H-imidazo[4,5-c]pyridin-4-amine], for which the Emax under setting [1] is 30 to 50%. For the compound `Oc1cccc(Nc2cc3[nH]c(-c4cccc(F)c4)cc3cn2)c1` [Compound 10, 3-[[2-(3-fluorophenyl)-1H-pyrrolo[3,2-c]pyridin-6-yl]amino]phenol], under setting [1], the Emax was in the range of 50 to 100%.

As for `COc1cc(Nc2cc3c(cn2)nc(NCC2CCCO2)n3C)cc(OC)c1OC` (stereo not drawn) [Compound 641, 1-methyl-N2-(tetrahydrofuran-2-ylmethyl)-N6-(3,4,5-trimethoxyphenyl)imidazo[4,5-c]pyridine-2,6-diamine], the Emax under setting [1] lay in the range of 30 to 50%. On to `Fc1ccc(C(F)(F)F)cc1Nc1cc2[nH]c(-c3cccnc3)cc2cn1` [Compound 79, N-[2-fluoro-5-(trifluoromethyl)phenyl]-2-(3-pyridyl)-1H-pyrrolo[3,2-c]pyridin-6-amine], for which the Emax under setting [1] is 30 to 50%. On the same count and under the same terms, the figure for `CS(=O)(=O)c1cccc(Nc2nccc3[nH]c(-c4ccc5c(c4)OCCO5)nc23)c1` [Compound 417, 2-(2,3-dihydro-1,4-benzodioxin-6-yl)-N-(3-methylsulfonylphenyl)-1H-imidazo[4,5-c]pyridin-4-amine] is 30 to 50%; for `COc1cc(OC)cc(-c2cc3c(Nc4ccncc4)nccc3[nH]2)c1` [Compound 291, 2-(3,5-dimethoxyphenyl)-N-(4-pyridyl)-1H-pyrrolo[3,2-c]pyridin-4-amine] it is 50 to 100%. Still for that read-out and setting: to `CNc1nc2cnc(Nc3cccc(OC)c3)cc2n1-c1ccccc1` [Compound 503, N6-(3-methoxyphenyl)-N2-methyl-1-phenyl-imidazo[4,5-c]pyridine-2,6-diamine] belongs 50 to 100%; to `Fc1cccc(-c2cc3c(N4CCOCC4)nccc3[nH]2)c1` [Compound 187, 4-[2-(3-fluorophenyl)-1H-pyrrolo[3,2-c]pyridin-4-yl]morpholine], 30 to 50%. On the same count and under the same terms, the figure for `CC(C)c1ccc(Nc2cc3[nH]c(-c4ccc(C(=O)N(C)C)cc4)cc3cn2)cc1` [Compound 38, 4-[6-(4-isopropylanilino)-1H-pyrrolo[3,2-c]pyridin-2-yl]-N,N-dimethyl-benzamide] is 0 to 30%; for `COc1ccc(-c2nc3c(N(C)c4ccccc4)nccc3[nH]2)cc1OC` [Compound 349, 2-(3,4-dimethoxyphenyl)-N-methyl-N-phenyl-1H-imidazo[4,5-c]pyridin-4-amine] it is 30 to 50%; for `c1ccc(Nc2cc3[nH]c(-c4cn[nH]c4)cc3cn2)nc1` [Compound 115, 2-(1H-pyrazol-4-yl)-N-(2-pyridyl)-1H-pyrrolo[3,2-c]pyridin-6-amine] it is > 100%.

For `CN(C)c1cccc(Nc2cc3c(cn2)cc(-c2cnn(C)c2)n3C)c1` [Compound 134, N1,N1-dimethyl-N3-[1-methyl-2-(1-methylpyrazol-4-yl)pyrrolo[3,2-c]pyridin-6-yl]benzene-1,3-diamine], under setting [1], the Emax lay in the range of 50 to 100%. On the same count and under the same terms, the figure for `CNc1nc2cnc(Nc3cccc(NS(C)(=O)=O)c3)cc2n1-c1cc(OC)c(OC)c(OC)c1` [Compound 492, N-[3-[[2-(methylamino)-1-(3,4,5-trimethoxyphenyl)imidazo[4,5-c]pyridin-6-yl]amino]phenyl]methanesulfonamide] is 30 to 50%; for `Clc1cccc(-c2cc3c(Nc4cccnc4)nccc3[nH]2)c1` [Compound 315, 2-(3-chlorophenyl)-N-(3-pyridyl)-1H-pyrrolo[3,2-c]pyridin-4-amine] it is 30 to 50%; for `COc1ccc(Nc2cc3[nH]c(-c4ccc(C(=O)N(C)C)cc4)cc3cn2)cc1OC` [Compound 21, 4-[6-(3,4-dimethoxyanilino)-1H-pyrrolo[3,2-c]pyridin-2-yl]-N,N-dimethyl-benzamide] it is 50 to 100%. The same measure, in the same setting: the figure for `COc1ccc(Nc2cc3[nH]c(-c4cccc(F)c4)cc3cn2)cc1OC` [Compound 7, N-(3,4-dimethoxyphenyl)-2-(3-fluorophenyl)-1H-pyrrolo[3,2-c]pyridin-6-amine] is 50 to 100%; for `Oc1ccc(Nc2nccc3[nH]c(-c4ccccc4)cc23)cc1` [Compound 317, 4-[(2-phenyl-1H-pyrrolo[3,2-c]pyridin-4-yl)amino]phenol] it is 50 to 100%; for `COCCNc1nc2cnc(-c3cccc(N(C)C)c3)cc2n1C` [Compound 647, 6-[3-(dimethylamino)phenyl]-N-(2-methoxyethyl)-1-methyl-imidazo[4,5-c]pyridin-2-amine] it is 50 to 100%. Still for that read-out and setting: the figure for `CNc1nc2cnc(Nc3ccc(C(=O)N(C)C)cc3)cc2n1Cc1ccccc1` [Compound 537, 4-[[1-benzyl-2-(methylamino)imidazo[4,5-c]pyridin-6-yl]amino]-N,N-dimethyl-benzamide] is 50 to 100%; for `OCCNc1nccc2[nH]c(-c3ccc4c(c3)OCCO4)nc12` [Compound 416, 2-[[2-(2,3-dihydro-1,4-benzodioxin-6-yl)-1H-imidazo[4,5-c]pyridin-4-yl]amino]ethanol] it is 30 to 50%.

`Oc1ccc(-c2nc3c(Nc4ccccc4)nccc3[nH]2)cc1` [Compound 365, 4-(4-anilino-1H-imidazo[4,5-c]pyridin-2-yl)phenol]: the Emax under setting [1] was 30 to 50%.

For `Sc1nc2cnccc2n1-c1ccccc1` [Compound 744, 1-phenylimidazo[4,5-c]pyridine-2-thiol], under setting [1], the “Ar (relative activity)” value is “++ (30 % ≤ Ar < 50 %)”. As to `Cn1cc(-c2cc3cnc(Nc4ccc(S(C)(=O)=O)cc4)cc3n2C)cn1` [Compound 152, 1-methyl-2-(1-methylpyrazol-4-yl)-N-(4-methylsulfonylphenyl)pyrrolo[3,2-c]pyridin-6-amine], the Emax under setting [1] was > 100%. Still for that read-out and setting: to `COc1ccc(CNc2nc3cnc(Nc4cc(OC)c(OC)c(OC)c4)cc3n2C)cc1OC` [Compound 599, N2-[(3,4-dimethoxyphenyl)methyl]-1-methyl-N6-(3,4,5-trimethoxyphenyl)imidazo[4,5-c]pyridine-2,6-diamine] belongs 50 to 100%; to `Fc1cccc(-c2cc3cnc(N4CCOCC4)cc3[nH]2)c1` [Compound 12, 4-[2-(3-fluorophenyl)-1H-pyrrolo[3,2-c]pyridin-6-yl]morpholine], > 100%. Same read-out and setting: to `CNc1nc2cnc(-c3ccc(S(C)(=O)=O)cc3)cc2n1-c1cccc(F)c1` [Compound 684, 1-(3-fluorophenyl)-N-methyl-6-(4-methylsulfonylphenyl)imidazo[4,5-c]pyridin-2-amine] belongs 30 to 50%. On to `CC(=O)c1cccc(Nc2cc3[nH]c(-c4cn[nH]c4)cc3cn2)c1` [Compound 118, 1-[3-[[2-(1 H-pyrazol-4-yl)-1H-pyrrolo[3,2-c]pyridin-6-yl]amino]phenyl]ethanone], for which the Emax under setting [1] was > 100%.

Regarding `COc1ccccc1-c1cc2c(Nc3cccc(NC(C)=O)c3)nccc2[nH]1` [Compound 299, N-[3-[[2-(2-methoxyphenyl)-1H-pyrrolo[3,2-c]pyridin-4-yl]amino]phenyl]acetamide], under setting [1], the Emax fell in the range of 50 to 100%. For `CNc1nc2cnc(Nc3ccc(OC)c(O)c3)cc2n1-c1cccc(C(F)(F)F)c1` [Compound 551, 2-methoxy-5-[[2-(methylamino)-1-[3-(trifluoromethyl)phenyl]imidazo[4,5-c]pyridin-6-yl]amino]phenol], the Emax under setting [1] lay within 50 to 100%. With `CNc1nc2cnc(Nc3cc(OC)c(OC)c(OC)c3)cc2n1Cc1ccc(OC)c(OC)c1` [Compound 660, 1-[(3,4-dimethoxyphenyl)methyl]-N2-methyl-N6-(3,4,5-trimethoxyphenyl)imidazo[4,5-c]pyridine-2,6-diamine], the Emax under setting [1] was in the range of 50 to 100%.

`c1ccc(Cn2cnc3c(NCc4ccco4)nccc32)cc1` [Compound 451, 1-benzyl-N-(2-furylmethyl)imidazo[4,5-c]pyridin-4-amine]: the Emax under setting [1] was in the range of 0 to 30%. Same read-out and setting: to `Cc1cccc(Nc2cc3[nH]c(-c4ccccn4)cc3cn2)c1` [Compound 64, N-(m-tolyl)-2-(2-pyridyl)-1H-pyrrolo[3,2-c]pyridin-6-amine] belongs 50 to 100%. Same read-out and setting: to `Fc1ccc(Nc2cc3[nH]c(-c4cn[nH]c4)cc3cn2)cc1` [Compound 114, N-(4-fluorophenyl)-2-(1H-pyrazol-4-yl)-1H-pyrrolo[3,2-c]pyridin-6-amine] belongs 50 to 100%; to `CC(=O)Nc1ccc(Nc2cc3c(cn2)nc(Cc2ccccc2)n3C)cc1` [Compound 700, N-[4-[(2-benzyl-1-methyl-imidazo[4,5-c]pyridin-6-yl)amino]phenyl]acetamide], 50 to 100%; to `COc1ccc(-c2nc3c(Nc4ccc(OC)c(O)c4)nccc3[nH]2)cc1` [Compound 398, 2-methoxy-5-[[2-(4-methoxyphenyl)-1H-imidazo[4,5-c]pyridin-4-yl]amino]phenol], > 100%. As to `CN(C)C(=O)c1ccc(-c2cc3c(Nc4ccc5c(c4)OCCO5)nccc3n2C)cc1` [Compound 214, 4-[4-(2,3-dihydro-1,4-benzodioxin-6-ylamino)-1-methyl-pyrrolo[3,2-c]pyridin-2-yl]-N,N-dimethyl-benzamide], the Emax under setting [1] lay in the range of 50 to 100%. Take `CCN(CC)CCNC(=O)c1ccc(Nc2nccc3[nH]c(-c4cccc(OC)c4F)nc23)cc1` [Compound 473, N-(2-diethylaminoethyl)-4-[[2-(2-fluoro-3-methoxy-phenyl)-1H-imidazo[4,5-c]pyridin-4-yl]amino]benzamide]: the Emax was > 100%. With `CC(=O)Nc1cccc(Nc2nccc3[nH]c(-c4ccccc4)cc23)c1` [Compound 323, N-[3-[(2-phenyl-1 H-pyrrolo[3,2-c]pyridin-4-yl)amino]phenyl]acetamide], the Emax under setting [1] lay within 50 to 100%. Turning to `CNc1nc2cnc(Nc3cccc(OC)c3)cc2n1-c1cccc(F)c1` [Compound 680, 1-(3-fluorophenyl)-N6-(3-methoxyphenyl)-N2-methyl-imidazo[4,5-c]pyridine-2,6-diamine], the Emax under setting [1] was in the range of 50 to 100%.

Source of the values: patent publication EP2818472A1, “Imidazo[4,5-c]pyridine and pyrrolo[3,2-c]pyridine compounds as G-protein-coupled receptor kinase 5 (GRK5) modulators” (Max-Planck-Gesellschaft zur Förderung der Wissenschaften …, priority 2013, dated 2014).
